One data set deals with T1, Adenosine receptor A1 (Rattus norvegicus, UniProt P25099).
T1 sequence (P25099 whole entry): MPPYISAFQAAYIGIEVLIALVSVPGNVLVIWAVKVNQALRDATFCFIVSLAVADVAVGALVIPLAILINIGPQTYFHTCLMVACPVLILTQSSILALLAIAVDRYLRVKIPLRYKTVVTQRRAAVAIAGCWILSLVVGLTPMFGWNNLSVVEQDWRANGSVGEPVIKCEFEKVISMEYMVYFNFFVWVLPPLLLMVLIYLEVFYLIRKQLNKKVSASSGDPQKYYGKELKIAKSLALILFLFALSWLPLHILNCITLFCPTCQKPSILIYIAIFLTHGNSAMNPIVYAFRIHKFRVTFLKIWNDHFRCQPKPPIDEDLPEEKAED
The data set is described as follows: Antagonism of binding of 1 nM [3H]cyclohexyladenosine to adenosine A1 receptors on rat cortical membranes. It counts as cell membranes, Membrane.

For data set [1], the target named is T2, Adenosine receptor A2a (Cavia porcellus, UniProt P46616).
Description: Antagonism of cyclic [3H]AMP accumulation in guinea pig cerebral cortical slices (elicited by 15 uM 2-chloroadenosine at adenosine A2 receptor)
Data set [2] is described as follows: Solubility in water. The conditions noted are these: read-out: S. The format is physicochemical.
The target in data set [3] is T2, Adenosine receptor A2a. As to the kind of experiment: Antagonism of cyclic [3H]AMP accumulation elicited by 15 uM 2-chloroadenosine in [3H]adenine-labeled guinea pig cerebral cortical slices at A2 receptor. It counts as functional.

Values after ≈ are worked out from the molar mass of the structure shown. Where only a bound is given, the exact number is not on record here.

Data on 22 compounds can be found in ChEMBL document CHEMBL1123072, “1,3-Dialkyl-8-(p-sulfophenyl)xanthines: potent water-soluble antagonists for A1- and A2-adenosine receptors” (J Med Chem, 1985).

T2 sequence (P46616 whole entry): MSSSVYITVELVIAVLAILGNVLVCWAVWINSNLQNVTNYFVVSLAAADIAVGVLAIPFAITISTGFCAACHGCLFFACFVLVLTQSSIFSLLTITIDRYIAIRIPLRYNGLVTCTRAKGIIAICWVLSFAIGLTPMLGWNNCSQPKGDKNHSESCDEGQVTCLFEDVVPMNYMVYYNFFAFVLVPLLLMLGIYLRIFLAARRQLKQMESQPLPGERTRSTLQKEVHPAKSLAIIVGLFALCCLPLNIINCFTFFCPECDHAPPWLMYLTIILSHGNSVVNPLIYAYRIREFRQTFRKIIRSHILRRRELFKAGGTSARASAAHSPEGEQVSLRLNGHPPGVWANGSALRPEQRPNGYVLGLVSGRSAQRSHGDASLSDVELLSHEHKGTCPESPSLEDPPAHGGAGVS

Broadly, the Ki is the equilibrium dissociation constant of an inhibitor or competing ligand from its target. Low readings indicate higher affinity, high ones lower affinity. `Cn1c(=O)c2[nH]c(-c3cccc(N)c3)nc2n(C)c1=O`: the Ki at Adenosine receptor A1 was 1100 nM; on Adenosine receptor A2a [1], 900 nM.

Regarding `Cn1c(=O)c2[nH]c(-c3ccc(C(=O)O)cc3)nc2n(C)c1=O`, the solubility in data set [2] amounted to 90 µM (≈ 27 µg/mL). The same compound showed a Ki on Adenosine receptor A2a [1] of 2500 nM.

In the case of `Cn1c(=O)c2[nH]c(-c3cccc(O)c3)nc2n(C)c1=O`, the Ki is 340 nM at Adenosine receptor A1 and 1000 nM on Adenosine receptor A2a [1].

Turning to `Cn1c(=O)c2nc(-c3ccccc3N)[nH]c2n(C)c1=O`, the Ki was determined as 850 nM on Adenosine receptor A1 and 1700 nM at Adenosine receptor A2a [1].

On to `Cn1c(=O)c2nc(-c3ccccc3C(=O)O)[nH]c2n(C)c1=O`, for which the Ki on Adenosine receptor A1 is above 50000 nM; at Adenosine receptor A2a [1], above 30000 nM.

Consider `CCCn1c(=O)c2nc[nH]c2n(CCC)c1=O`, for which, on Adenosine receptor A1, the Ki was 700 nM.

For the compound `CC(C)CCn1c(=O)c2nc(-c3ccccc3)[nH]c2n(CC(C)C)c1=O`, the figures for the Ki on Adenosine receptor A1 and on Adenosine receptor A2a [1] were 1800 nM and above 10000 nM, respectively. In data set [2], the solubility was determined as 10 µM (≈ 3.54 µg/mL).

As for `CC(C)CCn1c(=O)c2[nH]cnc2n(CC(C)C)c1=O`, the figures for the Ki at Adenosine receptor A1 and at Adenosine receptor A2a [1] were 13000 nM and above 150000 nM, respectively.

For `Cn1c(=O)c2c(nc(-c3ccccc3)n2C)n(C)c1=O`, the figures for the Ki at Adenosine receptor A1 and at Adenosine receptor A2a [1] were 17000 nM and 27000 nM, respectively.

Consider `Cn1c(=O)c2nc(-c3ccc(O)cc3)[nH]c2n(C)c1=O`, for which the Ki at Adenosine receptor A1 stood at 50 nM; on Adenosine receptor A2a [1], 130 nM. Moreover, the solubility in data set [2] worked out at 5 µM (≈ 1.36 µg/mL).

As for `CCCn1c(=O)c2nc(-c3ccc(O)cc3)[nH]c2n(CCC)c1=O`, the Ki at Adenosine receptor A1 was determined as 2.9 nM; on Adenosine receptor A2a [1], 50 nM.

For `CCCn1c(=O)c2[nH]c(-c3ccc(Cl)cc3N)nc2n(CCC)c1=O`, the Ki on Adenosine receptor A1 turned out to be 2.5 nM; at Adenosine receptor A2a [1] it was 1000 nM.

Take `Cn1c(=O)c2[nH]c(-c3cccc(C(=O)O)c3)nc2n(C)c1=O`: the Ki came to 32000 nM at Adenosine receptor A1 and 15000 nM at Adenosine receptor A2a [1].

With `Cn1c(=O)c2[nH]c(-c3ccc(N)cc3)nc2n(C)c1=O`, the Ki on Adenosine receptor A1 was determined as 230 nM; at Adenosine receptor A2a [1], 130 nM.

As to `CC(C)CCn1c(=O)c2[nH]c(-c3ccc(S(=O)(=O)O)cc3)nc2n(CC(C)C)c1=O`, the Ki at Adenosine receptor A1 came to 3500 nM; at Adenosine receptor A2a [1], 7000 nM.

As usually defined, the EC50 is the concentration needed to bring the measured effect to its halfway point. `Nc1nc(Cl)nc2c1ncn2[C@@H]1O[C@H](CO)[C@@H](O)[C@H]1O` gave an EC50 on Adenosine receptor A2a [3] of 8000 nM.

Consider `Cn1c(=O)c2[nH]c(-c3ccccc3O)nc2n(C)c1=O`, for which the figures for the Ki at Adenosine receptor A1 and on Adenosine receptor A2a [1] were 750 nM and 1700 nM, respectively.

With `CCCn1c(=O)c2[nH]c(-c3ccc(S(=O)(=O)O)cc3)nc2n(CCC)c1=O`, the inhibition constant Ki was determined as 210 nM on Adenosine receptor A1 and 710 nM on Adenosine receptor A2a [1].

As for `CCCn1c(=O)c2nc(-c3ccc(C(=O)O)cc3)[nH]c2n(CCC)c1=O`, the affinity on Adenosine receptor A1 corresponds to a Ki of 170 nM.

`Cn1c(=O)c2[nH]c(-c3ccc(S(=O)(=O)O)cc3)nc2n(C)c1=O`: the solubility in data set [2] is above 20000 µM. The compound further came in with a Ki on Adenosine receptor A2a [1] of 6300 nM.

Take `Cc1nc2c(=O)n(C)c(=O)n(C)c2[nH]1`: the Ki on Adenosine receptor A1 turned out to be 6500 nM; on Adenosine receptor A2a [1] it was 14000 nM.

`Cn1c(=O)c2[nH]c(-c3ccccc3)nc2n(C)c1=O` [8-PHENYL THEOPHYLLINE]: the Ki on Adenosine receptor A2a [1] turned out to be 550 nM.
